Experimental findings from patent US20240208992A1, “MACROCYCLES AS CFTR MODULATORS” (Idorsia Pharmaceuticals Ltd, priority 2021, published 2024) are described below.

In the test the target is human F508del-CFTR (Homo sapiens, UniProt P13569, DEL508-508). Kind of test: F508del-CFTR cell surface expression (corrector activity), DiscoveRx ß-galactosidase complementation chemiluminescence assay in recombinant U2OS cell line.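 On all read-outs here: U2OS cells co-expressing ProLink-tagged F508del-CFTR and a membrane-anchored enzyme acceptor, where more surface CFTR restores β-galactosidase activity measured by chemiluminescence.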 The settings on record: U2OS cell line, 16h compound incubation; for EC50: EC50, F508del-CFTR cell surface expression, geomean values; for Emax: U2OS, in relation to the Emax of the corrector lumacaftor (=100%), arithmetic mean values.
human F508del-CFTR, sequence (P13569 with tags, fused parts or gaps DEL508-508): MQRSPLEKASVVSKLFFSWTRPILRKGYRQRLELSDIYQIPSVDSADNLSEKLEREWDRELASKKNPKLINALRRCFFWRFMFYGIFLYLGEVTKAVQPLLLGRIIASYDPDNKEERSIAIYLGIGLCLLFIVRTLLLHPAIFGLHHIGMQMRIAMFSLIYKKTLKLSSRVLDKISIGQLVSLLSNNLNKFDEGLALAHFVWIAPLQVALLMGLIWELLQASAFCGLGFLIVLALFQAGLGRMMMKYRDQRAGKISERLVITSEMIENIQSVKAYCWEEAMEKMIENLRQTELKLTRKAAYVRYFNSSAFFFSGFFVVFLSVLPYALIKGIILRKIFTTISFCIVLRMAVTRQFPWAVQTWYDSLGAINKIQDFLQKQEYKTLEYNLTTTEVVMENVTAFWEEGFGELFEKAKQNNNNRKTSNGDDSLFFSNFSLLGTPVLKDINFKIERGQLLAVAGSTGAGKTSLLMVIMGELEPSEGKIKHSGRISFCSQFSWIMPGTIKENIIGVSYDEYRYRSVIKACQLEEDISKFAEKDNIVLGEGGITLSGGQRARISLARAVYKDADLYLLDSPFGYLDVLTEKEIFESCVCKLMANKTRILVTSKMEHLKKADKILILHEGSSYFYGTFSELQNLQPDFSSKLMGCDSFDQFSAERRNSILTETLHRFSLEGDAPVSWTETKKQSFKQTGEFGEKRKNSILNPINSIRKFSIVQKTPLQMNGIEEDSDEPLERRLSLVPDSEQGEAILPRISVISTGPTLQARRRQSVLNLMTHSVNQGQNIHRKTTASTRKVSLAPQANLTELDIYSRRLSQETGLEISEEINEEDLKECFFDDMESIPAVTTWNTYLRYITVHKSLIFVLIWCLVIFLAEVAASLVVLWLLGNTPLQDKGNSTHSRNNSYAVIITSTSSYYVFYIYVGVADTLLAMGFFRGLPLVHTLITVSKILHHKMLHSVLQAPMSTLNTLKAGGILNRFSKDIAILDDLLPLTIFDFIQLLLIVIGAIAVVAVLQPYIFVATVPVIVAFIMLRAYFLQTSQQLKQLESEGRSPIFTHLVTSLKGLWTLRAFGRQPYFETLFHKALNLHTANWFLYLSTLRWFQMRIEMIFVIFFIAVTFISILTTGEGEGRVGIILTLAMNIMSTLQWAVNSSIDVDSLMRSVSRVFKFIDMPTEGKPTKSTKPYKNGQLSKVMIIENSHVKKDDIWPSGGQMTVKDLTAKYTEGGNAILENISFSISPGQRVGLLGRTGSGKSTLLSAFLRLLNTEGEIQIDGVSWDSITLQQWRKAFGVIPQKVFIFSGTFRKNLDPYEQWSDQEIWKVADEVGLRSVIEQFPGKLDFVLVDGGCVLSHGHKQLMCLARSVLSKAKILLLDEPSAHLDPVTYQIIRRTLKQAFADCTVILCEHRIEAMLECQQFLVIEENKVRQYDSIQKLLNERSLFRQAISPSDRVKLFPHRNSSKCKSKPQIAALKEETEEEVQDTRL

Turning to `COc1ccc2c(c1)C(=O)N[C@H](C(=O)NCCc1ccc3c(c1)OCCC3)CC(=O)N(C)[C@@H](CC(C)C)C(=O)N(C)CC(=O)N[C@H](Cc1ccccc1)CO2` [Example 245, (3R,9S,13S)-3-benzyl-N-(2-(chroman-7-yl)ethyl)-9-isobutyl-17-methoxy-7,10-dimethyl-5,8,11,15-tetraoxo-2,3,4,5,6,7,8,9,10,11,12,13,14,15-tetradecahydrobenzo[p][1]oxa[4,7,10,14]tetraazacycloheptadecine-13-carboxamide], the EC50 (usually the midpoint of the concentration-response curve) is 260 nM and the Emax (as a rule, the maximal effect, on the per cent scale that the assay sets) turned out to be 174%.
Turning to `Cc1cccc2c1C(=O)N[C@H](C(=O)NCCc1ccc3c(c1)OCO3)CC(=O)N(C)[C@@H](CC(C)C)C(=O)N(CCC1CCCCC1)CC(=O)N[C@H](Cc1ccccc1)CO2` [Example 246, (3R,9S,13S)-N-(2-(benzo[d][1,3]dioxol-5-yl)ethyl)-3-benzyl-7-(2-cyclohexylethyl)-9-isobutyl-10,16-dimethyl-5,8,11,15-tetraoxo-2,3,4,5,6,7,8,9,10,11,12,13,14,15-tetradecahydrobenzo[p][1]oxa[4,7,10,14]tetraazacycloheptadecine-13-carboxamide], the 50% effective concentration (EC50) is 140 nM and the Emax came to 105%.
`COc1cccc(CCNC(=O)[C@@H]2CC(=O)N(C)[C@@H](CC(C)C)C(=O)N(CCC3CCCCC3)CC(=O)N[C@H](Cc3ccccc3)COc3cccc(C)c3C(=O)N2)c1` [Example 247, (3R,9S,13S)-3-benzyl-7-(2-cyclohexylethyl)-9-isobutyl-N-(3-methoxyphenethyl)-10,16-dimethyl-5,8,11,15-tetraoxo-2,3,4,5,6,7,8,9,10,11,12,13,14,15-tetradecahydrobenzo[p][1]oxa[4,7,10,14]tetraazacycloheptadecine-13-carboxamide]: the EC50 was determined as 146 nM and the Emax is 111%.
In the case of `COc1ccc2c(c1)C(=O)N[C@H](C(=O)NCCc1ccc3c(c1)OCO3)CC(=O)N(C)[C@@H](CC(C)C)C(=O)N(CCC1CCCCC1)CC(=O)N[C@H](Cc1ccccc1)CO2` [Example 248, (3R,9S,13S)-N-(2-(benzo[d][1,3]dioxol-5-yl)ethyl)-3-benzyl-7-(2-cyclohexylethyl)-9-isobutyl-17-methoxy-10-methyl-5,8,11,15-tetraoxo-2,3,4,5,6,7,8,9,10,11,12,13,14,15-tetradecahydrobenzo[p][1]oxa[4,7,10,14]tetraazacycloheptadecine-13-carboxamide], the concentration giving a half-maximal response (EC50) was determined as 106 nM and the Emax worked out at 191%.
For the compound `COc1cccc(CCNC(=O)[C@@H]2CC(=O)N(C)[C@@H](CC(C)C)C(=O)N(CCC3CCCCC3)CC(=O)N[C@H](Cc3ccccc3)COc3ccc(OC)cc3C(=O)N2)c1` [Example 249, (3R,9S,13S)-3-benzyl-7-(2-cyclohexylethyl)-9-isobutyl-17-methoxy-N-(3-methoxyphenethyl)-10-methyl-5,8,11,15-tetraoxo-2,3,4,5,6,7,8,9,10,11,12,13,14,15-tetradecahydrobenzo[p][1]oxa[4,7,10,14]tetraazacycloheptadecine-13-carboxamide], the EC50 turned out to be 116 nM and the maximal response (Emax) turned out to be 175%.
On to `CC(C)C[C@H]1C(=O)N(CCC2CCCCC2)CC(=O)N[C@H](Cc2ccccc2)COc2cc3ccccc3cc2C(=O)N[C@H](C(=O)NCCc2ccc3c(c2)OCO3)CC(=O)N1C` [Example 250, (3R,9S,13S)-N-(2-(benzo[d][1,3]dioxol-5-yl)ethyl)-3-benzyl-7-(2-cyclohexylethyl)-9-isobutyl-10-methyl-5,8,11,15-tetraoxo-2,3,4,5,6,7,8,9,10,11,12,13,14,15-tetradecahydronaphtho[2,3-p][1]oxa[4,7,10,14]tetraazacycloheptadecine-13-carboxamide], for which the EC50 came to 86 nM and the maximal response (Emax) amounted to 160%.
For `COc1cccc(CCNC(=O)[C@@H]2CC(=O)N(C)[C@@H](CC(C)C)C(=O)N(CCC3CCCCC3)CC(=O)N[C@H](Cc3ccccc3)COc3cc4ccccc4cc3C(=O)N2)c1` [Example 251, (3R,9S,13S)-3-benzyl-7-(2-cyclohexylethyl)-9-isobutyl-N-(3-methoxyphenethyl)-10-methyl-5,8,11,15-tetraoxo-2,3,4,5,6,7,8,9,10,11,12,13,14,15-tetradecahydronaphtho[2,3-p][1]oxa[4,7,10,14]tetraazacycloheptadecine-13-carboxamide], the EC50 stood at 83 nM and the Emax amounted to 159%.
On to `CCc1ccc(CCNC(=O)[C@@H]2CC(=O)N(C)[C@@H](CC(C)C)C(=O)N(C)CC(=O)N[C@H](Cc3ccccc3)COc3ccncc3C(=O)N2)cc1` [Example 252, (3R,9S,13S)-3-benzyl-N-(4-ethylphenethyl)-9-isobutyl-7,10-dimethyl-5,8,11,15-tetraoxo-2,3,4,5,6,7,8,9,10,11,12,13,14,15-tetradecahydropyrido[3,4-p][1]oxa[4,7,10,14]tetraazacycloheptadecine-13-carboxamide], for which the EC50 was 888 nM and the Emax is 111%.
Consider `CC(C)C[C@H]1C(=O)N(CCC2CCCCC2)CC(=O)N[C@H](Cc2ccccc2)COc2ccc(Cl)cc2C(=O)N[C@H](C(=O)NCCc2ccc3c(c2)OCO3)CC(=O)N1C` [Example 253, (3R,9S,13S)-N-(2-(benzo[d][1,3]dioxol-5-yl)ethyl)-3-benzyl-17-chloro-7-(2-cyclohexylethyl)-9-isobutyl-10-methyl-5,8,11,15-tetraoxo-2,3,4,5,6,7,8,9,10,11,12,13,14,15-tetradecahydrobenzo[p][1]oxa[4,7,10,14]tetraazacycloheptadecine-13-carboxamide], for which the EC50 came out at 88 nM and the maximal response (Emax) came out at 136%.
Consider `COc1cccc(CCNC(=O)[C@@H]2CC(=O)N(C)[C@@H](CC(C)C)C(=O)N(CCC3CCCCC3)CC(=O)N[C@H](Cc3ccccc3)COc3ccc(Cl)cc3C(=O)N2)c1` [Example 254, (3R,9S,13S)-3-benzyl-17-chloro-7-(2-cyclohexylethyl)-9-isobutyl-N-(3-methoxyphenethyl)-10-methyl-5,8,11,15-tetraoxo-2,3,4,5,6,7,8,9,10,11,12,13,14,15-tetradecahydrobenzo[p][1]oxa[4,7,10,14]tetraazacycloheptadecine-13-carboxamide], for which the EC50 was found to be 102 nM and the maximal response (Emax) is 152%.
Regarding `COc1cc(OC)c2c(c1)OC[C@@H](Cc1ccccc1)NC(=O)CN(CCC1CCCCC1)C(=O)[C@H](CC(C)C)N(C)C(=O)C[C@@H](C(=O)NCCc1ccc3c(c1)OCO3)NC2=O` [Example 255, (3R,9S,13S)-N-(2-(benzo[d][1,3]dioxol-5-yl)ethyl)-3-benzyl-7-(2-cyclohexylethyl)-9-isobutyl-16,18-dimethoxy-10-methyl-5,8,11,15-tetraoxo-2,3,4,5,6,7,8,9,10,11,12,13,14,15-tetradecahydrobenzo[p][1]oxa[4,7,10,14]tetraazacycloheptadecine-13-carboxamide], the EC50 came out at 183 nM and the maximal response (Emax) was determined as 299%.
On the same counts, the results for `COc1cccc(CCNC(=O)[C@@H]2CC(=O)N(C)[C@@H](CC(C)C)C(=O)N(CCC3CCCCC3)CC(=O)N[C@H](Cc3ccccc3)COc3cc(OC)cc(OC)c3C(=O)N2)c1` [Example 256, (3R,9S,13S)-3-benzyl-7-(2-cyclohexylethyl)-9-isobutyl-16,18-dimethoxy-N-(3-methoxyphenethyl)-10-methyl-5,8,11,15-tetraoxo-2,3,4,5,6,7,8,9,10,11,12,13,14,15-tetradecahydrobenzo[p][1]oxa[4,7,10,14]tetraazacycloheptadecine-13-carboxamide] are 147 nM and 319%.
For `COc1cccc2c1C(=O)N[C@H](C(=O)NCCc1ccc3c(c1)OCO3)CC(=O)N(C)CC(=O)N(CCC1CCCCC1)CC(=O)N[C@H](Cc1ccccc1)CO2` [Example 257, (3R,13S)-N-(2-(benzo[d][1,3]dioxol-5-yl)ethyl)-3-benzyl-7-(2-cyclohexylethyl)-16-methoxy-10-methyl-5,8,11,15-tetraoxo-2,3,4,5,6,7,8,9,10,11,12,13,14,15-tetradecahydrobenzo[p][1]oxa[4,7,10,14]tetraazacycloheptadecine-13-carboxamide], the EC50 was determined as 249 nM and the maximal effect (Emax) turned out to be 116%.
With `COc1cccc(CCNC(=O)[C@@H]2CC(=O)N(C)CC(=O)N(CCC3CCCCC3)CC(=O)N[C@H](Cc3ccccc3)COc3cccc(OC)c3C(=O)N2)c1` [Example 258, (3R,13S)-3-benzyl-7-(2-cyclohexylethyl)-16-methoxy-N-(3-methoxyphenethyl)-10-methyl-5,8,11,15-tetraoxo-2,3,4,5,6,7,8,9,10,11,12,13,14,15-tetradecahydrobenzo[p][1]oxa[4,7,10,14]tetraazacycloheptadecine-13-carboxamide], the EC50 was 424 nM and the maximum response (Emax) was found to be 117%.
With `COc1cccc2c1C(=O)N[C@H](C(=O)NCCc1ccc3c(c1)OCCCC3)CC(=O)N(C)[C@@H](CC(C)C)C(=O)N1CCOC[C@@H]1C(=O)N[C@H](Cc1ccccc1)CO2` [Example 260, (7S,11S,20R,22aR)-20-benzyl-7-isobutyl-14-methoxy-8-methyl-6,9,13,22-tetraoxo-N-(2-(2,3,4,5-tetrahydrobenzo[b]oxepin-8-yl)ethyl)-1,3,4,6,7,8,9,10,11,12,13,19,20,21,22,22a-hexadecahydrobenzo[p][1,4]oxazino[3,4-f][1]oxa[4,7,10,14]tetraazacycloheptadecine-11-carboxamide], the EC50 was determined as 783 nM and the maximal response (Emax) turned out to be 243%.
For `CC(C)C[C@H]1C(=O)N(CCC2CCCCC2)CC(=O)N[C@H](Cc2ccccc2)COc2ccncc2C(=O)N[C@H](C(=O)NCCc2ccc3c(c2)OCCC3)CC(=O)N1C` [Example 261, (3R,9S,13S)-3-benzyl-N-(2-(chroman-7-yl)ethyl)-7-(2-cyclohexylethyl)-9-isobutyl-10-methyl-5,8,11,15-tetraoxo-2,3,4,5,6,7,8,9,10,11,12,13,14,15-tetradecahydropyrido[3,4-p][1]oxa[4,7,10,14]tetraazacycloheptadecine-13-carboxamide], in that order: 327 nM and 215%.
